Like-named read-outs stand apart in the source and are kept apart here.
Experiments:
[1] = molecular target: recombinant human Mcl-1 (residues 171-327) / Bim interaction (Homo sapiens (Human), UniProt Q07820); test: biochemical; assay type: binding; details: TR-FRET, Mcl-1(171-327) / biotin-Bim (51-76); read-out: Mcl-1 HTRF IC50
[2] = test system: human multiple myeloma cell line, OPM-2; test: Cell viability assay (OPM-2 10 FBS), CellTiter-Glo; assay type: cell-based
Summary of the method: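 Cells were seeded at 3000 cells/well in RPMI 1640 with 10% FBS and exposed to serially diluted compounds for 16 h at 37 °C, 5% CO2.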

[3] = Homo sapiens, OPM-2, 16 h, read-out: OPM-2 10% FBS IC50 IP, OPM-2 cells, 10% FBS, 16 h, CellTiter-Glo
[4] = read-out: OPM-2 10% FBS IC50 IP, OPM-2 cells, 10% FBS, 16 h, CellTiter-Glo

Sequence of recombinant human Mcl-1 (residues 171-327) / Bim interaction (Q07820 171-327): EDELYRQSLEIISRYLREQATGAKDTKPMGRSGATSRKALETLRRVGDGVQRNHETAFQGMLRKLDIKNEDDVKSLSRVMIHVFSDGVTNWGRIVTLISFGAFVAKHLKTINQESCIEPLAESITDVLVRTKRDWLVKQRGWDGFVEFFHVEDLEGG

Row | SMILES | IC50 [1] [nM] | IC50 [2, 3] [nM] | IC50 [2, 4] [nM]
1 | C[C@@H]1[C@@H](C)C/C=C/[C@@](O)(CC(=O)N2CC(F)(F)C2)[C@@H]2CC[C@H]2CN2C[C@@]3(CCCc4cc(Cl)ccc43)COc3ccc(cc32)C(=O)NS1(=O)=O [Example 100297, (1S,3′R,6′R,7′S,8′E,11′S,12′R)-6-chloro-7′-(2-(3,3-difluoro-1-azetidinyl)-2-oxoethyl)-7′-hydroxy-11′,12′-dimethyl-3,4-dihydro-2H,15′H-spiro[naphthalene-1,22′-[20]oxa[13]thia[1,14]diazatetracyclo [14.7.2.0~3,6~.0~19,24~]pentacosa[8,16,18,24]tetraen]-15′-one 13′,13′-dioxide] | 0.115 | 168 | –
2 | C[C@@H]1[C@@H](C)C/C=C/[C@](O)(CC(=O)OCC2(C)COC2)[C@@H]2CC[C@H]2CN2C[C@@]3(CCCc4cc(Cl)ccc43)COc3ccc(cc32)C(=O)NS1(=O)=O [Example 100298, (3-methyl-3-oxetanyl)methyl ((1S,3′R,6′R,7′R,8′E,11′S,12′R)-6-chloro-7′-hydroxy-11′,12′-dimethyl-13′,13′-dioxido-15′-oxo-3,4-dihydro-2H-spiro[naphthalene-1,22′-[20]oxa[13]thia[1,14]diazatetracyclo [14.7.2.0~3,6~.0~19,24~]pentacosa[8,16,18,24]tetraen]-7′-yl)acetate] | 0.14 | 199 | –
3 | C[C@@H]1[C@@H](C)C/C=C/[C@@](O)(CC(=O)OCC2(C)COC2)[C@@H]2CC[C@H]2CN2C[C@@]3(CCCc4cc(Cl)ccc43)COc3ccc(cc32)C(=O)NS1(=O)=O [Example 100299, (3-methyl-3-oxetanyl)methyl ((1S,3′R,6′R,7′S,8′E,11′S,12′R)-6-chloro-7′-hydroxy-11′,12′-dimethyl-13′,13′-dioxido-15′-oxo-3,4-dihydro-2H-spiro[naphthalene-1,22′-[20]oxa[13]thia[1,14]diazatetracyclo [14.7.2.0~3,6~.0~19,24~]pentacosa[8,16,18,24]tetraen]-7′-yl)acetate] | 0.35 | 623 | –
4 | C[C@@H]1[C@@H](C)CCC[C@](C)(CN2CCN3CCOC[C@@H]3C2)[C@@H]2CC[C@H]2CN2C[C@@]3(CCCc4cc(Cl)ccc43)COc3ccc(cc32)C(=O)NS1(=O)=O [Example 100300, (1S,3′R,6′R,7′S,11′S,12′R)-6-chloro-7′-((9aS)-hexahydropyrazino[2,1-c][1,4]oxazin-8(1H)-ylmethyl)-7′,11′,12′-trimethyl-3,4-dihydro-2H,15′H-spiro[naphthalene-1,22′-[20]oxa[13]thia[1,14]diazatetracyclo [14.7.2.0~3,6~.0~19,24~]pentacosa[16,18,24]trien]-15′-one 13′,13′-dioxide] | 0.109 | 235 | –
5 | C[C@@H]1[C@@H](C)CCC[C@](C)(CO)[C@@H]2CC[C@H]2CN2C[C@@]3(CCCc4cc(Cl)ccc43)COc3ccc(cc32)C(=O)NS1(=O)=O [Example 100301, (1S,3′R,6′R,7′S,11′S,12′R)-6-chloro-7′-(hydroxymethyl)-7′,11′,12′-trimethyl-3,4-dihydro-2H,15′H-spiro[naphthalene-1,22′-[20]oxa[13]thia[1,14]diazatetracyclo [14.7.2.0~3,6~.0~19,24~]pentacosa[16,18,24]trien]-15′-one 13′,13′-dioxide] | 1.31 | 1930 | –
6 | C[C@@H]1[C@@H](C)CCC[C@](C)(CN2CCOCC2)[C@@H]2CC[C@H]2CN2C[C@@]3(CCCc4cc(Cl)ccc43)COc3ccc(cc32)C(=O)NS1(=O)=O [Example 100302, (1S,3′R,6′R,7′S,11′S,12′R)-6-chloro-7′,11′,12′-trimethyl-7′-(4-morpholinylmethyl)-3,4-dihydro-2H,15′H-spiro[naphthalene-1,22′-[20]oxa[13]thia[1,14]diazatetracyclo [14.7.2.0~3,6~.0~19,24~]pentacosa[16,18,24]trien]-15′-one 13′,13′-dioxide] | 3.8 | 4880 | –
7 | C[C@@H]1[C@@H](C)CCC[C@@]2(C[C@H]2C(=O)N2CCN3CCOC[C@H]3C2)[C@@H]2CC[C@H]2CN2C[C@@]3(CCCc4cc(Cl)ccc43)COc3ccc(cc32)C(=O)NS1(=O)=O [Example 100303, (1R,2R,3′R,6′R,11′S,12′R,22′S)-6″-chloro-2-((9aR)-hexahydropyrazino[2,1-c][1,4]oxazin-8(1H)-ylcarbonyl)-11′,12′-dimethyl-3″,4″-dihydro-2″H,15′H-dispiro[cyclopropane-1,7′-[20]oxa[13]thia[1,14]diazatetracyclo [14.7.2.0~3,6~.0~19,24~]pentacosa[16,18,24]triene-22′,1″-naphthalen]-15′-one 13′,13′-dioxide] | 3.64 | – | 7330
8 | C[C@@H]1[C@@H](C)CCC[C@@]2(C[C@H]2C(=O)N2CCN3CCOC[C@H]3C2)[C@@H]2CC[C@H]2CN2C[C@@]3(CCCc4cc(Cl)ccc43)COc3ccc(cc32)C(=O)NS1(=O)=O [Example 100304, (1R,2R,3′R,6′R,11′S,12′R,22′S)-6″-chloro-2-((9aR)-hexahydropyrazino[2,1-c][1,4]oxazin-8(1H)-ylcarbonyl)-11′,12′-dimethyl-3″,4″-dihydro-2″H,15′H-dispiro[cyclopropane-1,7′-[20]oxa[13]thia[1,14]diazatetracyclo [14.7.2.0~3,6~.0~19,24~]pentacosa[16,18,24]triene-22′,1″-naphthalen]-15′-one 13′,13′-dioxide] | 0.311 | – | 464
9 | C[C@@H]1[C@@H](C)C/C=C/[C@@](O)(CC(=O)N2CCN3CCOC[C@@H]3C2)[C@@H]2CC[C@H]2CN2C[C@@]3(CCCc4cc(Cl)ccc43)COc3ccc(cc32)C(=O)NS1(=O)=O [Example 100305, (1S,3′R,6′R,7′S,8′E,11′S,12′R)-6-chloro-7′-(2-((9aS)-hexahydropyrazino[2,1-c][1,4]oxazin-8(1H)-yl)-2-oxoethyl)-7′-hydroxy-11′,12′-dimethyl-3,4-dihydro-2H,15′H-spiro[naphthalene-1,22′-[20]oxa[13]thia[1,14]diazatetracyclo [14.7.2.0~3,6~.0~19,24~]pentacosa[8,16,18,24]tetraen]-15′-one 13′,13′-dioxide] | 0.473 | 1140 | –
10 | CO[C@]1(CC(=O)O)/C=C/C[C@H](C)[C@@H](C)S(=O)(=O)NC(=O)c2ccc3c(c2)N(C[C@@H]2CC[C@H]21)C[C@@]1(CCCc2cc(Cl)ccc21)CO3 [Example 100306, ((1S,3′R,6′R,7′R,8′E,11′S,12′R)-6-chloro-7′-methoxy-11′,12′-dimethyl-13′,13′-dioxido-15′-oxo-3,4-dihydro-2H-spiro[naphthalene-1,22′-[20]oxa[13]thia[1,14]diazatetracyclo [14.7.2.0~3,6~.0~19,24~]pentacosa[8,16,18,24]tetraen]-7′-yl)acetic acid] | 0.124 | 278 | –
11 | CO[C@@]1(CC(=O)O)/C=C/C[C@H](C)[C@@H](C)S(=O)(=O)NC(=O)c2ccc3c(c2)N(C[C@@H]2CC[C@H]21)C[C@@]1(CCCc2cc(Cl)ccc21)CO3 [Example 100307, ((1S,3′R,6′R,7′S,8′E,11′S,12′R)-6-chloro-7′-methoxy-11′,12′-dimethyl-13′,13′-dioxido-15′-oxo-3,4-dihydro-2H-spiro[naphthalene-1,22′-[20]oxa[13]thia[1,14]diazatetracyclo [14.7.2.0~3,6~.0~19,24~]pentacosa[8,16,18,24]tetraen]-7′-yl)acetic acid] | 0.049 | 1030 | –
12 | C[C@@H]1[C@@H](C)C/C=C/[C@@](O)(C#CCCN(C)C)[C@@H]2CC[C@H]2CN2C[C@@]3(CCCc4cc(Cl)ccc43)COc3ccc(cc32)C(=O)NS1(=O)=O [Example 100308, (1S,3′R,6′R,7′S,8′E,11′S,12′R)-6-chloro-7′-(4-(dimethylamino)-1-butyn-1-yl)-7′-hydroxy-11′,12′-dimethyl-3,4-dihydro-2H,15′H-spiro[naphthalene-1,22′-[20]oxa[13]thia[1,14]diazatetracyclo [14.7.2.0~3,6~.0~19,24~]pentacosa[8,16,18,24]tetraen]-15′-one 13′,13′-dioxide] | 0.033 | – | 1170
13 | C[C@@H]1[C@@H](C)C/C=C/[C@@](O)(C#CCCN(C)C)[C@@H]2CC[C@H]2CN2C[C@@]3(CCCc4cc(Cl)ccc43)COc3ccc(cc32)C(=O)NS1(=O)=O [Example 100309, (1S,3′R,6′R,7′S,8′E,11′S,12′R)-6-chloro-7′-(4-(dimethylamino)-1-butyn-1-yl)-7′-hydroxy-11′,12′-dimethyl-3,4-dihydro-2H,15′H-spiro[naphthalene-1,22′-[20]oxa[13]thia[1,14]diazatetracyclo [14.7.2.0~3,6~.0~19,24~]pentacosa[8,16,18,24]tetraen]-15′-one 13′,13′-dioxide] | 0.244 | – | 385
14 | C[C@@H]1[C@@H](C)C/C=C/[C@@](O)(CC(=O)N2CCN3CCOC[C@H]3C2)[C@@H]2CC[C@H]2CN2C[C@@]3(CCCc4cc(Cl)ccc43)COc3ccc(cc32)C(=O)NS1(=O)=O [Example 100311, (1S,3′R,6′R,7′S,8′E,11′S,12′R)-6-chloro-7′-(2-((9aR)-hexahydropyrazino[2,1-c][1,4]oxazin-8(1H)-yl)-2-oxoethyl)-7′-hydroxy-11′,12′-dimethyl-3,4-dihydro-2H,15′H-spiro[naphthalene-1,22′-[20]oxa[13]thia[1,14]diazatetracyclo [14.7.2.0~3,6~.0~19,24~]pentacosa[8,16,18,24]tetraen]-15′-one 13′,13′-dioxide] | 1.03 | 1190 | –
